{"source": "ChEMBL document CHEMBL4265942", "about": "“Four new antitumor metabolites isolated from a mutant 3-f-31 strain derived from Penicillium purpurogenum G59” (Eur J Med Chem, 2018)", "key": {"L929": {"system": "L929", "test": "Cytotoxicity against mouse L929 cells assessed as inhibition of cell growth after 72 hrs by MTT assay", "type": "cell-based", "conditions": "L929, 72 h"}, "A549": {"system": "A549", "test": "Antiproliferative activity against human A549 cells assessed as inhibition of cell growth after 72 hrs by sulforhodamine B assay", "type": "functional, cell-based", "conditions": "A549, 72 h"}, "HeLa": {"system": "HeLa", "test": "Antiproliferative activity against human HeLa cells assessed as inhibition of cell growth after 72 hrs by sulforhodamine B assay", "type": "functional, cell-based"}, "MCF7": {"system": "MCF7", "test": "Antiproliferative activity against human MCF7 cells assessed as inhibition of cell growth after 72 hrs by sulforhodamine B assay", "type": "functional, cell-based", "conditions": "MCF7, 72 h"}, "HCT-116 [1]": {"system": "HCT-116", "test": "Antiproliferative activity against human HCT116 cells assessed as inhibition of cell growth after 72 hrs by sulforhodamine B assay", "type": "functional, cell-based", "conditions": "HCT-116, 72 h"}, "HepG2": {"system": "HepG2", "test": "Antiproliferative activity against human HepG2 cells assessed as inhibition of cell growth after 72 hrs by sulforhodamine B assay", "type": "functional, cell-based", "conditions": "HepG2, 72 h"}, "NCI-H1975": {"system": "NCI-H1975", "test": "Antiproliferative activity against human NCI-H1975 cells assessed as inhibition of cell growth after 72 hrs by sulforhodamine B assay", "type": "functional, cell-based", "conditions": "NCI-H1975, 72 h"}, "HL-60": {"system": "HL-60", "test": "Antiproliferative activity against human HL60 cells assessed as inhibition of cell growth after 72 hrs by MTT assay", "type": "functional, cell-based", "conditions": "HL-60, 72 h"}, "K562": {"system": "K562", "test": "Antiproliferative activity against human K562 cells assessed as inhibition of cell growth after 72 hrs by MTT assay", "type": "functional, cell-based", "conditions": "K562, 72 h"}, "LS180": {"system": "LS180", "test": "Antiproliferative activity against human LS180 cells assessed as inhibition of cell growth after 72 hrs by sulforhodamine B assay", "type": "functional, cell-based", "conditions": "LS180, 72 h"}, "SW480": {"system": "SW480", "test": "Antiproliferative activity against human SW480 cells assessed as inhibition of cell growth after 72 hrs by sulforhodamine B assay", "type": "functional, cell-based", "conditions": "SW480, 72 h"}, "HT-29": {"system": "HT-29", "test": "Antiproliferative activity against human HT-29 cells assessed as inhibition of cell growth after 72 hrs by sulforhodamine B assay", "type": "functional, cell-based", "conditions": "HT-29, 72 h"}, "PC-3": {"system": "PC-3", "test": "Antiproliferative activity against human PC3 cells assessed as inhibition of cell growth after 72 hrs by sulforhodamine B assay", "type": "functional, cell-based", "conditions": "PC-3, 72 h"}, "BXPC-3": {"system": "BXPC-3", "test": "Antiproliferative activity against human BxPC3 cells assessed as inhibition of cell growth after 72 hrs by sulforhodamine B assay", "type": "functional, cell-based", "conditions": "BXPC-3, 72 h"}, "PANC-1": {"system": "PANC-1", "test": "Antiproliferative activity against human PANC1 cells assessed as inhibition of cell growth after 72 hrs by sulforhodamine B assay", "type": "functional, cell-based", "conditions": "PANC-1, 72 h"}, "HCT-116 [2]": {"system": "HCT-116", "test": "Antitumor activity against human HCT116 cells xenografted in BALB/c nu/nu mouse assessed as tumor growth inhibition at 5 mg/kg administered peritoneally once daily for 14 days measured 24 hrs post last dose relative to control", "type": "functional", "conditions": "read-out: TGI"}, "HCT-116 [3]": {"system": "HCT-116", "test": "Antitumor activity against human HCT116 cells xenografted in BALB/c nu/nu mouse assessed as tumor growth inhibition at 10 mg/kg administered peritoneally once daily for 14 days measured 24 hrs post last dose relative to control", "type": "functional", "conditions": "read-out: TGI"}, "HCT-116 [4]": {"system": "HCT-116", "test": "Antitumor activity against human HCT116 cells xenografted in BALB/c nu/nu mouse assessed as tumor growth inhibition at 20 mg/kg administered peritoneally once daily for 14 days measured 24 hrs post last dose relative to control", "type": "functional", "conditions": "read-out: TGI"}, "Mus musculus [5]": {"system": "Mus musculus", "test": "Toxicity in BALB/c nu/nu mouse xenografted with human HCT116 cells assessed as spleen index at 5 mg/kg administered peritoneally once daily for 14 days measured 24 hrs post last dose (reference value: 0.41 +/- 0.08%)", "type": "organism-based", "conditions": "in vivo, ip"}, "Mus musculus [6]": {"system": "Mus musculus", "test": "Toxicity in BALB/c nu/nu mouse xenografted with human HCT116 cells assessed as spleen index at 10 mg/kg administered peritoneally once daily for 14 days measured 24 hrs post last dose (reference value: 0.41 +/- 0.08%)", "type": "organism-based", "conditions": "in vivo, ip"}, "Mus musculus [7]": {"system": "Mus musculus", "test": "Toxicity in BALB/c nu/nu mouse xenografted with human HCT116 cells assessed as spleen index at 20 mg/kg administered peritoneally once daily for 14 days measured 24 hrs post last dose (reference value: 0.41 +/- 0.08%)", "type": "organism-based", "conditions": "in vivo, ip"}, "HCT-116 [8]": {"system": "HCT-116", "test": "Down regulation of HSP90 expression in human HCT116 cells after 48 hrs by Western blot analysis", "type": "functional, cell-based"}, "HCT-116 [9]": {"system": "HCT-116", "test": "Down regulation of STAT3 expression in human HCT116 cells after 48 hrs by Western blot analysis", "type": "functional, cell-based"}, "HCT-116 [10]": {"system": "HCT-116", "test": "Down regulation of phosphorylated STAT3 expression in human HCT116 cells after 48 hrs by Western blot analysis", "type": "functional, cell-based"}, "HCT-116 [11]": {"system": "HCT-116", "test": "Down regulation of AKT expression in human HCT116 cells after 48 hrs by Western blot analysis", "type": "functional, cell-based"}, "HCT-116 [12]": {"system": "HCT-116", "test": "Down regulation of Raf1 expression in human HCT116 cells after 48 hrs by Western blot analysis", "type": "functional, cell-based"}, "HCT-116 [13]": {"system": "HCT-116", "test": "Down regulation of ERK1/2 expression in human HCT116 cells after 48 hrs by Western blot analysis", "type": "functional, cell-based"}, "HCT-116 [14]": {"system": "HCT-116", "test": "Down regulation of survivin expression in human HCT116 cells after 48 hrs by Western blot analysis", "type": "functional, cell-based"}}}
{"smiles": "CCCCCC[C@@H](C)C[C@@H](C)/C=C/C(=O)N[C@H]1C[C@@]2(O[C@H]1O)[C@@H]1O[C@@H]1[C@](O)(CC(C)=O)[C@@H]1O[C@@H]12", "values": [{"measurement": "IC50", "setting": "L929", "value": 3.8, "unit": "µM"}, {"measurement": "IC50", "setting": "A549", "value": 10.9, "unit": "µM"}, {"measurement": "IC50", "setting": "HeLa", "value": 5.09, "unit": "µM"}, {"measurement": "IC50", "setting": "MCF7", "value": 3.73, "unit": "µM"}, {"measurement": "IC50", "setting": "HCT-116 [1]", "value": 1.91, "unit": "µM"}, {"measurement": "IC50", "setting": "HepG2", "value": 5.21, "unit": "µM"}, {"measurement": "IC50", "setting": "NCI-H1975", "value": 3.75, "unit": "µM"}, {"measurement": "IC50", "setting": "HL-60", "value": 4.55, "unit": "µM"}, {"measurement": "IC50", "setting": "K562", "value": 4.2, "unit": "µM"}, {"measurement": "IC50", "setting": "LS180", "value": 17.4, "unit": "µM"}, {"measurement": "IC50", "setting": "SW480", "value": 4.64, "unit": "µM"}, {"measurement": "IC50", "setting": "HT-29", "value": 8.4, "unit": "µM"}, {"measurement": "IC50", "setting": "PC-3", "value": 8.7, "unit": "µM"}, {"measurement": "IC50", "setting": "BXPC-3", "value": 5.96, "unit": "µM"}, {"measurement": "IC50", "setting": "PANC-1", "value": 4.04, "unit": "µM"}, {"measurement": "inhibition in vivo at 5 mg/kg", "setting": "HCT-116 [2]", "value": 51.6, "unit": "%"}, {"measurement": "inhibition in vivo at 10 mg/kg", "setting": "HCT-116 [3]", "value": 37.8, "unit": "%"}, {"measurement": "inhibition in vivo at 20 mg/kg", "setting": "HCT-116 [4]", "value": 37.9, "unit": "%"}, {"measurement": "Activity_index", "setting": "Mus musculus [5]", "value": 0.95}, {"measurement": "Activity_index", "setting": "Mus musculus [6]", "value": 0.37}, {"measurement": "Activity_index", "setting": "Mus musculus [7]", "value": 0.48}, {"measurement": "Activity", "setting": "HCT-116 [8]", "value": "Dose-dependent effect"}, {"measurement": "Activity", "setting": "HCT-116 [9]", "value": "Dose-dependent effect"}, {"measurement": "Activity", "setting": "HCT-116 [10]", "value": "Dose-dependent effect"}, {"measurement": "Activity", "setting": "HCT-116 [11]", "value": "Dose-dependent effect"}, {"measurement": "Activity", "setting": "HCT-116 [12]", "value": "Dose-dependent effect"}, {"measurement": "Activity", "setting": "HCT-116 [13]", "value": "Dose-dependent effect"}, {"measurement": "Activity", "setting": "HCT-116 [14]", "value": "Dose-dependent effect"}]}
